Data from patent US9995734B2, “Human T cell line assay for evaluating the immunologic identity of glatiramer acetate preparations” (Mylan Inc., priority 2013, dated 2018).
Several values for one entry are separate records, joined by “and”; a condition that tells them apart may be missing. Equal values may be shown once.

Tested on: panel of six GA-specific long-term human T-cell lines (222-2D8, 222-2F12, 165-F3C, 165-F6C, 205-1C4, 205-1F4)
Test: GA-specific human T-cell line panel assay (ATP proliferation): GA test lots and altered GA lots compared with Copaxone
Type: cell-based
Settings: for ATP Proliferation Assay, Mean / Proliferation (ATP assay), Mean: 4 days
Procedure: Proliferation assays, using the panel of six GA-specific long-term human T-cell lines listed in Table 78, were carried out to compare […] GA test lots, GMA/009/14 (GA Lot 009), GMA/010/14 (GA Lot 010), GMA/011/14 (GA Lot 011), GMA/012/14 (GA Lot 012), GMA/013/14 (GA Lot 013), GMA/014/14 (GA Lot 014), GA Lot 016, GMA/017/14 (GA Lot 017), GMA/018/14 (GA Lot 018), and GMA/070/14 (GA Lot 070), manufactured using standard methods, to a Copaxone reference lot.
Each T-cell line was restimulated using methods described above, using five concentrations of the reference antigen (0.5, 1, 2, 2.5, and 5 μg/ml Copaxone), the same five concentrations of test antigen (the nine GA test lots), and a no antigen control, in the presence of 5×10^4 mitomycin-treated autologous B-LCL. Proliferation was measured by ATP assay after 4 days of incubation with antigen, using methods described previously.
The percentages in the last column of each table were calculated as follows: Proliferation response to test antigen minus proliferation response to control (no antigen)÷proliferation response to reference antigen minus proliferation response to control (no antigen)
The panel of six GA-specific human T-cell lines listed in Table 78 above was used to test the immunological identity of altered GA lots to Copaxone.
Proliferation assays using the panel of six GA-specific T-cell lines (Table 77) were carried out, to compare negative GA lots 051F, 054F, 055F, 057F, 058F, 059F, and 060F (test lots), to Copaxone (reference lot). Each cell line was restimulated using 5 concentrations of reference antigen (Copaxone) and test antigen (the negative GA lots), including a no antigen control (in the presence of 5×10^4 mitomycin-treated autologous B-LCL). Proliferation was measured by ATP assay after 4 days of incubation with antigen, using methods described previously.
The percentages in the last column of each table were calculated as follows: Proliferation response to test antigen minus proliferation response to control (no antigen)÷proliferation response to reference antigen minus proliferation response to control (no antigen).

For glatiramer acetate [COP], the “ATP Proliferation Assay, Mean” value (T-cell line 165-F3C, 0.5 μg/mL) was 4,783, the “ATP Proliferation Assay, Mean” value (T-cell line 165-F3C, 1 μg/mL) was 22,290 and the “ATP Proliferation Assay, Mean” value (T-cell line 165-F3C, 2 μg/mL) was 53,771. The “ATP Proliferation Assay, Mean” value (T-cell line 165-F3C, 2.5 μg/mL) was 54,539, the “ATP Proliferation Assay, Mean” value (T-cell line 165-F3C, 5 μg/mL) was 58,110 and the “ATP Proliferation Assay, Mean” value (T-cell line 165-F6C, 0.5 μg/mL) was 3,328. For the same substance, the “ATP Proliferation Assay, Mean” value (T-cell line 165-F6C, 1 μg/mL) was 4,620, the “ATP Proliferation Assay, Mean” value (T-cell line 165-F6C, 2 μg/mL) was 13,255 and the “ATP Proliferation Assay, Mean” value (T-cell line 165-F6C, 2.5 μg/mL) was 18,726. For the same substance, the “Mean, ATP proliferation assay” value (T-cell line 165-F6C, 5 μg/mL) was 34,012 and 34,995 and 56,466 and 56,465 and 42,493 and 41,233 and 36,303, the “ATP Proliferation Assay, Mean” value (T-cell line 165-F6C, 5 μg/mL) was 38,653 and the “ATP Proliferation Assay, Mean” value (T-cell line 205-1C4, 0.5 μg/mL) was 932. The “ATP Proliferation Assay, Mean” value (T-cell line 205-1C4, 1 μg/mL) was 2,481, the “ATP Proliferation Assay, Mean” value (T-cell line 205-1C4, 2 μg/mL) was 9,432 and the “ATP Proliferation Assay, Mean” value (T-cell line 205-1C4, 2.5 μg/mL) was 13,744. The “ATP Proliferation Assay, Mean” value (T-cell line 205-1C4, 5 μg/mL) was 45,451, the “ATP Proliferation Assay, Mean” value (T-cell line 205-1F4, 0.5 μg/mL) was 548 and the “ATP Proliferation Assay, Mean” value (T-cell line 205-1F4, 1 μg/mL) was 1,906. For the same substance, the “ATP Proliferation Assay, Mean” value (T-cell line 205-1F4, 2 μg/mL) was 9,959, the “ATP Proliferation Assay, Mean” value (T-cell line 205-1F4, 2.5 μg/mL) was 13,589 and the “ATP Proliferation Assay, Mean” value (T-cell line 205-1F4, 5 μg/mL) was 18,491. The “ATP Proliferation Assay, Mean” value (T-cell line 222-2D8, 0.5 μg/mL) was 5,873, the “ATP Proliferation Assay, Mean” value (T-cell line 222-2D8, 1 μg/mL) was 14,017 and the “ATP Proliferation Assay, Mean” value (T-cell line 222-2D8, 2 μg/mL) was 90,328. The “ATP Proliferation Assay, Mean” value (T-cell line 222-2D8, 2.5 μg/mL) was 129,878, the “ATP Proliferation Assay, Mean” value (T-cell line 222-2D8, 5 μg/mL) was 171,116 and the “ATP Proliferation Assay, Mean” value (T-cell line 222-2F12, 0.5 μg/mL) was 10,879. For the same substance, the “ATP Proliferation Assay, Mean” value (T-cell line 222-2F12, 1 μg/mL) was 27,042, the “ATP Proliferation Assay, Mean” value (T-cell line 222-2F12, 2 μg/mL) was 105,024 and the “ATP Proliferation Assay, Mean” value (T-cell line 222-2F12, 2.5 μg/mL) was 115,241. The “ATP Proliferation Assay, Mean” value (T-cell line 222-2F12, 5 μg/mL) was 129,291, the “Proliferation (ATP assay), Mean” value (Table 95, T-cell line 165-F3C, GA conc. 0.5 μg/mL) was 3,154 and the “Proliferation (ATP assay), Mean” value (Table 95, T-cell line 165-F3C, GA conc. 1 μg/mL) was 9,050. The “Proliferation (ATP assay), Mean” value (Table 95, T-cell line 165-F3C, GA conc. 2 μg/mL) was 27,693, the “Proliferation (ATP assay), Mean” value (Table 95, T-cell line 165-F3C, GA conc. 2.5 μg/mL) was 28,018 and the “Proliferation (ATP assay), Mean” value (Table 95, T-cell line 165-F3C, GA conc. 5 μg/mL) was 32,151. The “Proliferation (ATP assay), Mean” value (Table 95, T-cell line 165-F6C, GA conc. 0.5 μg/mL) was 863, the “Proliferation (ATP assay), Mean” value (Table 95, T-cell line 165-F6C, GA conc. 1 μg/mL) was 1,838 and the “Proliferation (ATP assay), Mean” value (Table 95, T-cell line 165-F6C, GA conc. 2 μg/mL) was 8,163. The “Proliferation (ATP assay), Mean” value (Table 95, T-cell line 165-F6C, GA conc. 2.5 μg/mL) was 11,665, the “Proliferation (ATP assay), Mean” value (Table 95, T-cell line 165-F6C, GA conc. 5 μg/mL) was 30,422 and the “Proliferation (ATP assay), Mean” value (Table 95, T-cell line 205-1C4, GA conc. 0.5 μg/mL) was 13,267. For the same substance, the “Proliferation (ATP assay), Mean” value (Table 95, T-cell line 205-1C4, GA conc. 1 μg/mL) was 26,848, the “Proliferation (ATP assay), Mean” value (Table 95, T-cell line 205-1C4, GA conc. 2 μg/mL) was 142,528 and the “Proliferation (ATP assay), Mean” value (Table 95, T-cell line 205-1C4, GA conc. 2.5 μg/mL) was 159,785. The “Proliferation (ATP assay), Mean” value (Table 95, T-cell line 205-1C4, GA conc. 5 μg/mL) was 171,452, the “Proliferation (ATP assay), Mean” value (Table 95, T-cell line 205-1F4, GA conc. 0.5 μg/mL) was 6,984 and the “Proliferation (ATP assay), Mean” value (Table 95, T-cell line 205-1F4, GA conc. 1 μg/mL) was 15,174. The “Proliferation (ATP assay), Mean” value (Table 95, T-cell line 205-1F4, GA conc. 2 μg/mL) was 46,598, the “Proliferation (ATP assay), Mean” value (Table 95, T-cell line 205-1F4, GA conc. 2.5 μg/mL) was 51,372 and the “Proliferation (ATP assay), Mean” value (Table 95, T-cell line 205-1F4, GA conc. 5 μg/mL) was 61,252. For the same substance, the “Proliferation (ATP assay), Mean” value (Table 95, T-cell line 222-2D8, GA conc. 0.5 μg/mL) was 13,958, the “Proliferation (ATP assay), Mean” value (Table 95, T-cell line 222-2D8, GA conc. 1 μg/mL) was 87,807 and the “Proliferation (ATP assay), Mean” value (Table 95, T-cell line 222-2D8, GA conc. 2 μg/mL) was 142,231. The “Proliferation (ATP assay), Mean” value (Table 95, T-cell line 222-2D8, GA conc. 2.5 μg/mL) was 140,804, the “Proliferation (ATP assay), Mean” value (Table 95, T-cell line 222-2D8, GA conc. 5 μg/mL) was 147,182 and the “Proliferation (ATP assay), Mean” value (Table 95, T-cell line 222-2F12, GA conc. 0.5 μg/mL) was 3,580. The “Proliferation (ATP assay), Mean” value (Table 95, T-cell line 222-2F12, GA conc. 1 μg/mL) was 42,304, the “Proliferation (ATP assay), Mean” value (Table 95, T-cell line 222-2F12, GA conc. 2 μg/mL) was 108,046 and the “Proliferation (ATP assay), Mean” value (Table 95, T-cell line 222-2F12, GA conc. 2.5 μg/mL) was 115,182. The “Proliferation (ATP assay), Mean” value (Table 95, T-cell line 222-2F12, GA conc. 5 μg/mL) was 123,169, the “Proliferation (ATP assay), Mean” value (Table 96, T-cell line 165-F3C, GA conc. 0.5 μg/mL) was 2,577 and the “Proliferation (ATP assay), Mean” value (Table 96, T-cell line 165-F3C, GA conc. 1 μg/mL) was 5,743. The “Proliferation (ATP assay), Mean” value (Table 96, T-cell line 165-F3C, GA conc. 2 μg/mL) was 16,415, the “Proliferation (ATP assay), Mean” value (Table 96, T-cell line 165-F3C, GA conc. 2.5 μg/mL) was 20,446 and the “Proliferation (ATP assay), Mean” value (Table 96, T-cell line 165-F3C, GA conc. 5 μg/mL) was 32,600. The “Proliferation (ATP assay), Mean” value (Table 96, T-cell line 165-F6C, GA conc. 0.5 μg/mL) was 2,228, the “Proliferation (ATP assay), Mean” value (Table 96, T-cell line 165-F6C, GA conc. 1 μg/mL) was 4,270 and the “Proliferation (ATP assay), Mean” value (Table 96, T-cell line 165-F6C, GA conc. 2 μg/mL) was 15,430. The “Proliferation (ATP assay), Mean” value (Table 96, T-cell line 165-F6C, GA conc. 2.5 μg/mL) was 28,942, the “Proliferation (ATP assay), Mean” value (Table 96, T-cell line 165-F6C, GA conc. 5 μg/mL) was 45,836 and the “Proliferation (ATP assay), Mean” value (Table 96, T-cell line 205-1C4, GA conc. 0.5 μg/mL) was 11,790. The “Proliferation (ATP assay), Mean” value (Table 96, T-cell line 205-1C4, GA conc. 1 μg/mL) was 26,004, the “Proliferation (ATP assay), Mean” value (Table 96, T-cell line 205-1C4, GA conc. 2 μg/mL) was 102,672 and the “Proliferation (ATP assay), Mean” value (Table 96, T-cell line 205-1C4, GA conc. 2.5 μg/mL) was 124,300. For the same substance, the “Proliferation (ATP assay), Mean” value (Table 96, T-cell line 205-1C4, GA conc. 5 μg/mL) was 129,908, the “Proliferation (ATP assay), Mean” value (Table 96, T-cell line 205-1F4, GA conc. 0.5 μg/mL) was 8,158 and the “Proliferation (ATP assay), Mean” value (Table 96, T-cell line 205-1F4, GA conc. 1 μg/mL) was 17,491. The “Proliferation (ATP assay), Mean” value (Table 96, T-cell line 205-1F4, GA conc. 2 μg/mL) was 51,613, the “Proliferation (ATP assay), Mean” value (Table 96, T-cell line 205-1F4, GA conc. 2.5 μg/mL) was 60,244 and the “Proliferation (ATP assay), Mean” value (Table 96, T-cell line 205-1F4, GA conc. 5 μg/mL) was 54,345. The “Proliferation (ATP assay), Mean” value (Table 96, T-cell line 222-2D8, GA conc. 0.5 μg/mL) was 2,785, the “Proliferation (ATP assay), Mean” value (Table 96, T-cell line 222-2D8, GA conc. 1 μg/mL) was 28,970 and the “Proliferation (ATP assay), Mean” value (Table 96, T-cell line 222-2D8, GA conc. 2 μg/mL) was 76,089. The “Proliferation (ATP assay), Mean” value (Table 96, T-cell line 222-2D8, GA conc. 2.5 μg/mL) was 90,666, the “Proliferation (ATP assay), Mean” value (Table 96, T-cell line 222-2D8, GA conc. 5 μg/mL) was 99,491 and the “Proliferation (ATP assay), Mean” value (Table 96, T-cell line 222-2F12, GA conc. 0.5 μg/mL) was 2,404. The “Proliferation (ATP assay), Mean” value (Table 96, T-cell line 222-2F12, GA conc. 1 μg/mL) was 11,359, the “Proliferation (ATP assay), Mean” value (Table 96, T-cell line 222-2F12, GA conc. 2 μg/mL) was 78,880 and the “Proliferation (ATP assay), Mean” value (Table 96, T-cell line 222-2F12, GA conc. 2.5 μg/mL) was 95,825. The “Proliferation (ATP assay), Mean” value (Table 96, T-cell line 222-2F12, GA conc. 5 μg/mL) was 107,930.
